Where two headings read alike, the source gives them in different places.
Tests used:
[1] = molecular target: T1, CB1 receptor G protein activation, rat brain membranes (Rattus norvegicus, UniProt P20272); conditions: cited from earlier work; for [35S]GTPγS Binding Emax: basal = 100%; for EC50: read-out: [35S]GTPγS Binding EC50
T1 construct: Crude membrane fractions were prepared from the brain; from tissue; host or cells: Wistar rat whole brain, crude membrane fraction

[2] = molecular target: T2, cannabinoid receptors (CB1), rat brain membranes (Rattus norvegicus, UniProt P20272); conditions: displacement of [3H]WIN55212-2, rat brain membranes; cited from earlier work
T2 construct: Crude membrane fractions were prepared from the brain; from tissue; host or cells: Wistar rat whole brain, crude membrane fraction
T2 sequence (P20272 whole entry): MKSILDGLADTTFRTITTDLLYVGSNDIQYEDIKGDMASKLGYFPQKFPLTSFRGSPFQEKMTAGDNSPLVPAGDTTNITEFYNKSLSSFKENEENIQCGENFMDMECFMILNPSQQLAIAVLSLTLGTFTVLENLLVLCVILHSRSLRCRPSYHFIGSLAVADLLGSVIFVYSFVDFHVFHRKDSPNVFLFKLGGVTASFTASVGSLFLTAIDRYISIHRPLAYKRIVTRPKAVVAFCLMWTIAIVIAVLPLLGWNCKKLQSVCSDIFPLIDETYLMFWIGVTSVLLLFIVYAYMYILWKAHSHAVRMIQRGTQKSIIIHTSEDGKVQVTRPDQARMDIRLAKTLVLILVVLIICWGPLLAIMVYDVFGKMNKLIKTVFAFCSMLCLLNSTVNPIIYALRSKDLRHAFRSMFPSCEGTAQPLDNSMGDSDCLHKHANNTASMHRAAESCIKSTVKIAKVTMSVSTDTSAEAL

food intake = assay: Feeding test (food intake); format: in vivo, CD-1 male mice; conditions: 10 mg/Kg i.p., fasted mice, 1-h test
Description: (§1) The international and national law and policies approved by Italian Ministry of Health were used to comply with all animal care and experimental procedures. Animal studies were advised in compliance with the ARRIVE guidelines and with the recommendations made by EU Directive 2010/63/EU for animal experiments and the Basel declaration including the 3Rs concept. CD-1 male mice (10–14 weeks of age, 25–30 g of weight) were bought from Charles River (Milan, Italy). Shortly after their arrival and for at least one week, they were kept in an animal care facility under controlled standard conditions of temperature (21 ± 1 °C), light (from 7:00 AM to 7:00 PM), and relative humidity (60 ± 10%). Access to drinking water and food was assured. All procedures were performed to decrease the number of animals used (n = 6 per group) and their distress.
The test was carried out as previously described. At 24 h before the start of a feeding test, all food was removed from the home cages of mice to be tested. The next day and at least 1 h before the feeding test began, the mice were transported to the laboratory. On test days, the animals were placed in the home cages for 30 min of drug assimilation, during which food was not available. Then compounds were intraperitoneally administered (10 mg/kg). Mice were transferred into transparent and individual plastic cages with thick white paper lining the bottom and access to a pre-measured amount of their regular lab chow (2 gr) for the 1-h test. At the end of 1 h, mice were repositioned into their home cage. The amount of food left in the trial cage, including crumbs, was measured, and the amount consumed was calculated. Feeding trials normally happened on Tuesdays and Fridays between 12:00 and 14:00 h.

[3] = molecular target: T2, cannabinoid receptors (CB1), rat brain membranes; assay: [3H]WIN55212-2 radioligand competition binding assay
Protocol: (§2) Wistar rats were locally bred and handled according to the EU Directive 2010/63/EU and to the Regulations on Animal Protection (40/2013. (II. 14.) Korm. r.) of Hungary. Crude membrane fractions were prepared from the brain. Brains were quickly removed from the euthanized rats and directly put in an ice-cold 50 mM Tris–HCl buffer (pH 7.4). The collected tissue was then homogenized in 30 volumes (v/w) of an ice-cold buffer with a Braun Teflon-glass homogenizer at the highest rpm. The homogenate was centrifuged at 20,000× g for 25 min, and the resulting pellet was suspended in the same volume of a cold buffer followed by incubation at 37 °C for 30 min to remove endogenous ligands. Centrifugation was then repeated. The final pellets were taken up in five volumes of a 50 mM Tris–HCl (pH 7.4) buffer containing 0.32 M sucrose and stored at −80 °C. Prior to the experiment, aliquots were thawed and centrifuged at 20,000× g for 25 min and then they were resuspended in 50 mM Tris–HCl (pH 7.4), homogenized with a Douncer, followed by the determination of the protein concentration by the method of Bradford. The membrane suspensions were immediately used either in radioligand binding experiments or in [^35S]GTPγS functional assays.
Filtration was performed with a 24-well Brandel Cell Harvester (Gaithersburg, MD, USA). Filters were air-dried and immersed into Ultima Gold MV scintillation cocktail, and then radioactivity was measured with a TRI-CARB 2100TR liquid scintillation analyzer (Packard, Perkin Elmer, Waltham, MA, USA).

[4] = molecular target: T1, CB1 receptor G protein activation, rat brain membranes; assay: Ligand stimulated [35S]GTPγS binding assay; format: biochemical; conditions: for Emax: rat brain membranes, basal = 100%, mean ± S.E.M.
Protocol: as §2
Rat brain membranes (30 µg protein/tube), prepared as described above, were incubated with 0.05 nM of [^35S]GTPγS (PerkinElmer) and 10^−10–10^−5 M unlabeled ligands in the presence of 30 µM of GDP, 100 mM of NaCl, 3 mM of MgCl2 and 1 mM of EGTA in a 50 mM Tris–HCl buffer (pH 7.4) for 60 min at 30 °C. Basal [^35S]GTPγS binding was measured in the absence of ligands and set as 100%. Nonspecific binding was determined by the addition of 10 µM unlabeled GTPγS and subtracted from total binding. Incubation, filtration and radioactivity measurements of the samples were carried out as described above.
In [^35S]GTPγS binding studies, data were expressed as the percentage stimulation of the specific [^35S]GTPγS binding over the basal activity and are given as means ±S.E.M. Each experiment was performed in triplicate and analyzed with sigmoid dose–response curve fitting to obtain potency (EC50) and efficacy (Emax) values. All data and curves were analyzed by GraphPad Prism 5.0 (San Diego, CA, USA).

[5] = system: formalin-induced licking/biting; assay: Formalin test; format: in vivo, CD-1 male mice; conditions: 100 μg/20 μL s.c., mice
Description: as §1
Mice were located to adapt into the transparent cages individually (30 × 14 × 12 cm) for at least an hour before testing. They were injected with 20 μL of a 1% solution of formalin in saline. Then, the compounds were administered subcutaneously in the dorsal surface of the right hind paw of the mouse using a microsyringe with a 27-gauge needle for 15 min before. Compounds were prepared by freshly diluting saline containing 0.9% NaCl in the ratio DMSO:saline 1:3 (v/v). […] The total time the animal spent licking or biting its paw was calculated.

[6] = system: zymosan-induced thermal hyperalgesia; assay: Zymosan-induced hyperalgesia (plantar test); format: in vivo, CD-1 male mice; conditions: 100 μg/20 μL s.c., after 3 h
Description: as §1, with “All procedures were performed to decrease the number of animals used (n = 6 per group) and their distress.” left out
The compounds (100 µg) were administered subcutaneously in a volume of 20 µL in the dorsal surface of mice hind paw; this was done 15 min before a subcutaneous injection (20 μL/paw) of zymosan A (2.5% w/v in saline) into the same paw before the measurement of hyperalgesia. The sensitivity to a noxious heat stimulus was measured by the plantar test (Ugo Basile, Italy), in order to evaluate thermal hyperalgesia after the zymosan-induced inflammation of the mouse hind paw. […] Furthermore, on the test day, the animals were acclimatized to the experimental room 1 h before paw withdrawal latency (PWL) was calculated. […]

[7] = system: zymosan-induced paw edema; assay: Edema induced by zymosan; format: in vivo, CD-1 male mice; conditions: 100 μg/20 μL s.c., for 24 h
Description: as §1
In this test, 100 µg of the compounds were administered subcutaneously in a volume of 20 µL in the dorsal surface of mice hind paw; this was done 15 min before a subcutaneous injection (20 μL/paw) of zymosan A (2.5% w/v in saline) into the same paw. Then, paw edema was calculated as formerly described. […] Paw volume was quantified using a hydroplethysmometer modified for small volumes (Ugo Basile, Varese, Italy) three times before the injections and at 1, 2, 3, 4 and 24 h thereafter.

T1 sequence (P20272 whole entry): as above

## CCCCCn1cc(C(=O)c2cccc3ccccc23)c2ccccc21 [JWH-018, reference compound]
[1]
  [35S]GTPγS Binding Emax: 163 ± 5.2%
  EC50: 16 ± 3 nM
[2]
  Ki: 3.5 ± 1 nM

## CC(C)(C)[C@H](NC(=O)c1nn(Cc2ccc(Cl)cc2Cl)c2ccccc12)C(=O)O [LONI1, (S)-2-(1-(2,4-dichlorobenzyl)-1H-indazole-3-carboxamido)-3,3-dimethylbutanoic acid]
[1]
  [35S]GTPγS Binding Emax: 84 ± 6.6%
  EC50: > 1000 nM

## COC(=O)[C@@H](NC(=O)c1nn(Cc2ccc(Cl)cc2Cl)c2ccccc12)C(C)(C)C [LONI2, (S)-methyl-2-(1-(2,4-dichlorobenzyl)-1H-indazole-3-carboxamido)-3,3-dimethylbutanoate]
[1]
  [35S]GTPγS Binding Emax: 143 ± 5.7%
  EC50: 8.4 nM
Food intake
  effect on food intake: reduce food intake

## CC(C)(C)[C@H](NC(=O)c1nn(Cc2ccc(Cl)cc2Cl)c2ccccc12)C(N)=O [LONI3, (S)-N-(1-amino-3,3-dimethyl-1-oxobutan-2-yl)-1-(2,4-dichlorobenzyl)-1H-indazole-3-carboxamide]
[1]
  [35S]GTPγS Binding Emax: 139 ± 4.5%
  EC50: 126 nM

## CC(C)[C@H](NC(=O)c1nn(Cc2ccc(Cl)cc2Cl)c2ccccc12)C(=O)O [LONI4, (S)-2-(1-(2,4-dichlorobenzyl)-1H-indazole-3-carboxamido)-3-methylbutanoic acid]
[1]
  [35S]GTPγS Binding Emax: 82 ± 10.6%
  EC50: > 1000 nM
Food intake
  effect on food intake: reduce food intake

## CNC(=O)[C@@H](NC(=O)c1nn(Cc2ccc(Cl)cc2Cl)c2ccccc12)C(C)C [LONI10, (S)-1-(2,4-dichlorobenzyl)-N-(3-methyl-1-(methylamino)-1-oxobutan-2-yl)-1H-indazole-3-carboxamide]
[3]
  Ki: 84 ± 3.4 nM
[4]
  Emax: 100 ± 1.7%

## CNC(=O)[C@@H](NC(=O)c1nn(Cc2ccc(Cl)cc2Cl)c2ccccc12)C(C)(C)C [LONI11, (S)-1-(2,4-dichlorobenzyl)-N-(3,3-dimethyl-1-(methylamino)-1-oxobutan-2-yl)-1H-indazole-3-carboxamide]
[5]
  antinociceptive effect in formalin test: slight antinociceptive effect
Food intake
  effect on food intake: increased the food intake
[3]
  Ki: 11 ± 1.2 nM
[4]
  EC50: 200 ± 13 nM
  Emax: 151 ± 3%
[4]; compared with WIN55,212
  potency in GTP-binding protein stimulation relative to WIN55,212: three-fold less potency
[6]
  percent of paw latency (zymosan-induced hyperalgesia): about 50%
[7]
  percent of paw volume (zymosan-induced edema): 100%

## CNC(=O)[C@H](CC(C)C)NC(=O)c1nn(Cc2ccc(Cl)cc2Cl)c2ccccc12 [LONI12, (S)-1-(2,4-dichlorobenzyl)-N-(4-methyl-1-(methylamino)-1-oxopentan-2-yl)-1H-indazole-3-carboxamide]
[3]
  Ki: 320 ± 16 nM
[4]
  Emax: 101 ± 1%

## Cc1c(C(=O)NN2CCCCC2)nn(-c2ccc(Cl)cc2Cl)c1-c1ccc(Cl)cc1 [rimonabant, 5-(4-chlorophenyl)-1-(2,4-dichloro-phenyl)-4-methyl-N-(piperidin-1-yl)-1H-pyrazole-3-carboxamide, reference compound]
Food intake
  effect on food intake: reduce food intake

Reference: publication PMC6770484, “Discovery of Orexant and Anorexant Agents with Indazole Scaffold Endowed with Peripheral Antiedema Activity” (Biomolecules, 2019)
